Measured values as given in patent US8710098B2, “Group of amino substituted benzoyl derivatives and their preparation and their use” (priority 2008, dated 2014).

Legend:
[1] = molecular target: T1, hA3G degradation mediated by HIV-1 Vif (UniProt P69723+Q9HC16); assay: Screening experiment for up-regulation activity to hA3G (YFP-fused hA3G co-expressed with HIV-1 Vif, fluorescence); type: cell-based, human; conditions: YFP fluorescence of cells co-expressing Vif and hA3G-YFP; excitation 485 nm, detection 520 nm; averages of duplicates
T1 construct: expressed in transfected cells
Text: Based on the advances making research on the hA3G degradation mediated by HIV-1 Vif, this invention establishes a high throughput anti-HIV-1 drug screening model using hA3G degradation mediated by HIV-1 Vif as target, to screen small molecule active compounds capable of inhibiting this degradation process. The function principle of this model is that HIV-1 Vif protein and hA3G fused yellow fluorescent protein (YFP) co-expressed in the cells, then the intracellular fluorescence intensity (at […]) decreases owing to the degradation of hA3G caused by Vif and subsequent degradation of YEP fused on hA3G. By means of measuring the change of fluorescent intensity, the influence of the screened compounds on the degradation of hA3G caused by Vif can quantitatively be analyzed. Simultaneously, to differentiate the non-specific inhibitory effect of diverse ubiquitin degradation route in the samples, this invention establishes a recheck model based on the detection of P53 degradation caused by the product of adenovirus early gene, to assure that the positive samples screened out by the proposed model can specifically block the degradation of hA3G caused by Vif.
Screening Experiment for Up-Regulation Activity to hA3G
The cells are picked up and cultured a culture bottle. When the cells grow full of the culture bottle, old culture medium is discarded and the cells are digested with digestion medium. When the cells turn round, the digestion medium is discarded and the culture medium is added in at once, the bottom of the bottle is gently blown with a pipette to make the cells disengage the bottle bottom and disperse into single cell suspension. After counting the cells using blood cell counting chamber, the cell suspension is inoculated into a culture dish for transfection. The medium containing the plasmid to be transfected and the transfection reagents is gently mixed up and incubated at room temperature. The medium is then added into the supernatant of the cell culture and cultured for a certain period of time. The old culture medium is then sucked out, the cells are digested with digestive medium, the digestive medium is subsequently discarded and culture medium is immediately added. The medium is gently blown to disperse the cells into single cell suspension. After counting the cells using blood cell counting chamber, the cells are ready for inoculation.
Samples of compounds[…]Pure tested compounds are dissolved in DMSO, the solution is diluted with equal proportional distilled water. The diluent is used to test the cell systems.
Sample solution of different concentration is added into the supernatant of a cell culture. After the cells are continuously cultured, old culture medium is sucked out and the cells are blown with PBS buffer until the cells completely disengage from the culture bottle.
The fluorescence intensity values of the cell suspension with test compound samples, positive control samples and negative control samples are respectively measured with fluorometer, the excitation wavelength is 485 nm and the detection wavelength 520 nm. Averages of duplicated measurements are taken as the results.
The measured fluorescence intensity values of the negative control samples (blink sample) subtracted from those of test compound samples, the results are taken as YFP fluorescence of different groups. Relative fluorescence intensity=fluorescence intensity of a test sample group/fluorescence intensity of the positive control group×100% Inhibition rate of degradation=(test sample group−negative control group)/(positive control group−negative control group)×100%

HIV-1 = HIV-1 P24 antigen in supernatant 4 days (96 h) after addition of compounds
Method: The inhibitory activities of the compounds proposed in this invention to HIV-1 were measured using HIV-1 P24 antigen kit.
DMSO solutions of samples of test compounds listed in Table 2 diluted to 8 different concentrations and the solution of the positive control AZT (azidothymidine, 0.15 ng/ml) are respectively added into 96 well plates, duplications are set for each of the dilutions, and negative control samples are also made. Aliquots of 100 μl 2×10^5 cell/ml suspension are inoculated onto the 96 well cell culture plates and cultured in an incubator under a condition of 37° C., 5% CO2 and saturated humidity. The pathologic changes of the cells are observed every day. The HIV-1 P24 antigen contents in supernatant cells are measured in 4 days (96 h) after addition of the test compounds according to the operation procedure provided by the HIV-1 P24 antigen kit.

T1 sequence (P69723 whole entry, the tested form may be a part): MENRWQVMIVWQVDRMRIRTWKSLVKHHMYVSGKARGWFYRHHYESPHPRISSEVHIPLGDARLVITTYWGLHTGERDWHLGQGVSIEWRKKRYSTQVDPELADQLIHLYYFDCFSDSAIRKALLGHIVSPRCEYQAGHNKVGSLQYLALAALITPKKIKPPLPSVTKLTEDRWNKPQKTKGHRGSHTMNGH
T1 sequence (Q9HC16 whole entry, the tested form may be a part): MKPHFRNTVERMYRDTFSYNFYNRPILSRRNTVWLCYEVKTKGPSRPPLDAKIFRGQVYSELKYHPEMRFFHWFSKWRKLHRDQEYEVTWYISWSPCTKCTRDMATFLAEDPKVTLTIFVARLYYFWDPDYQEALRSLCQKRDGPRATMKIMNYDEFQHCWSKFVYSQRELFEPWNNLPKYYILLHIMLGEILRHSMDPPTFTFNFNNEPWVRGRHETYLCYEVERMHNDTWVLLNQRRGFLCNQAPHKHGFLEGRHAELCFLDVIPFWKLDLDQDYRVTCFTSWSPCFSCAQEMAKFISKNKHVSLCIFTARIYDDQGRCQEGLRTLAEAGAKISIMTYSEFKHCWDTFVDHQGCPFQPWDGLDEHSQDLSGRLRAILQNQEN

**Q.** `COc1ccc(C(=O)Oc2cc(OC)c(OC)c(OC)c2)cc1N` [Compound 352, 3′,4′,5′-trimethoxyphenyl 3-amino-4-methoxybenzoate] was tested. Which “hA3G up-regulation activity (%)” value [1] did it give?
**A.** 37.0%

**Q.** What about the “inhibitory activity to HIV-1, IC50” value (HIV-1) of the same compound?
**A.** 0.0554 µg/mL
